The values below come from patent publication US9234902B2, “Method for monitoring anticoagulant therapy” (priority 2011, dated 2016).

For one assay, the system named is FII and FX. Description: Sequential Fiix-INR (Fiix-PT) measurements over 49 days in a single patient starting on warfarin. The format is in vivo, human. The conditions noted are these: FIG. 6. From the text:
The test results may be obtained as clotting time, clotting time ratio or any other endpoint measuring thrombin generation or fibrin formation. […] Since this is a variant of the prothrombin time we call it “Fiix-prothrombin time” or Fiix-PT.
In our new method, which we call Fiix-method, a test plasma sample (patient plasma) is mixed with normal plasma that has been immunodepleted of both FII and FX (Fiix-deficient plasma). Using such mixture, by adding thromboplastin and calcium, a prothrombin time variant can be measured that is only sensitive to FII and FX, ie Fiix-PT. In the Fiix-PT the proportions of test plasma to Fiix-deficient plasma can be in the range from 1:1 to 1:20 parts, preferably in the range from 1:2 to 1:10 (see below).
Based on the experiments shown in FIG. 4 we decided to measure the Fiix-PT by mixing […] of a 1:7 dilution of test plasma with 25 uL of Fiix-deficient plasma (i.e. final proportion 1 part test plasma to 2.2 parts Fiix-deficient plasma). We then measured “Fiix-PT” in samples from 38 patients on stable warfarin therapy and calculated the international normalized ratio (“Fiix-INR”). […] Corresponding results were found when Fiix-INR was correlated with Quick PT based INR(PT-INR, data not shown).
In FIG. 6 we show sequential measurements of Fiix-INR, PP-INR, FII, FVII and FX over 49 days in a single patient starting on warfarin. […]

In the next assay the test system is FII, FVII and FX. Description: Sequential PT-INR (PP-INR) measurements over 49 days in a single patient starting on warfarin. The class given is in vivo, human. The conditions noted are these: FIG. 6, grey zone. The procedure:
Both the Quick prothrombin time (PT) and the Owren's prothrombin time (prothrombin proconverting time, P&P test) were measured on patient samples. The STA-R coagulation analyzer was used (Diagnostika Stago, Asnieres, France). The PT was done using the STA-Néoplastine® CI plus as coagulation reagent, with and ISI value of 1.3 and the P&P was done using the STA-SPA 50 reagent with ISI of 1.01 (both from Diagnostika Stago). The P&P reagent is similar to the PT reagent but also consists of added absorbed bovine plasma as a source of coagulation factor V and fibrinogen and, thus, is only sensitive to the activity of FII, FVII and FX. The P&P percentages were calculated from a standard curve based on serially diluted pooled plasma in Owren's buffer. The INR is calculate as described above.
In FIG. 6 we show sequential measurements of Fiix-INR, PP-INR, FII, FVII and FX over 49 days in a single patient starting on warfarin. The amount of coagulation factors (percentage) is shown on the left Y-axis and the INR value on the right Y-axis. The change in INR in relation to changes in concentrations of the VKD factors can be derived from the graph. […]

On to `CC(=O)CC(c1ccccc1)c1c(O)c2ccccc2oc1=O` (centres unmarked) [warfarin], for which the “day on which the patient reaches an acceptable INR value (acceptable anticoagulation) by Fiix-INR” value in the assay with FII and FX was 5 days. Further, the “day on which the patient has reached an acceptable anticoagulated range by PT-INR” value with FII, FVII and FX worked out at 3 days.
